# Tested on: cisplatin-induced emesis
# Test: Duration of action in cisplatin-treated dogs
# Type: in vivo
# Settings: 0.04 mg/kg IV
# Protocol: Mean numbers of episodes were computed and the statistical significance of differences between treatment groups were determined with Dunnett's t test. Solutions of palonosetron and comparator drugs (ondansetron and granisetron) were prepared in distilled water. Vehicle control groups received distilled water.
smiles,measurement,setting,value
CN1C2CCCC1CC(NC(=O)c1nn(C)c3ccccc13)C2 (centres unmarked) [Granisetron],antiemetic effect in duration of action experiments,1 to 12 hours before cisplatin,without antiemetic effect
same,Emetic Episodes (mean ± SD),1 hr pre-cisplatin 3.0 mg/kg IV,12.33 ± 4.32
same,Emetic Episodes (mean ± SD),2 hr pre-cisplatin 3.0 mg/kg IV,9.67 ± 4.46
same,Emetic Episodes (mean ± SD),4 hr pre-cisplatin 3.0 mg/kg IV,13.83 ± 7.25
same,Emetic Episodes (mean ± SD),6 hr pre-cisplatin 3.0 mg/kg IV,21.33 ± 9.54
same,Emetic Episodes (mean ± SD),8 hr pre-cisplatin 3.0 mg/kg IV,14.67 ± 8.69
same,Emetic Episodes (mean ± SD),10 hr pre-cisplatin 3.0 mg/kg IV,23.00 ± 5.87
same,Emetic Episodes (mean ± SD),12 hr pre-cisplatin 3.0 mg/kg IV,15.67 ± 6.28

# — US20110178118A1, “PALONOSETRON FOR THE TREATMENT OF CHEMOTHERAPY INDUCED EMESES” (priority 2002, published 2011)
